Assay results: US8748491B2, “Dietary and pharmaceutical compositions containing tricyclic diterpenes and their derivatives and their uses” (priority 2006, dated 2014)
Marks after values point to notes of the source that are not given here.

Experiments:
[1] = target: T1, human serotonin re-uptake transporter (hSERT) (Homo sapiens, UniProt P31645); experiment: Inhibition of tritiated serotonin uptake into transfected HEK-293 cells; type: cell-based; conditions: HEK-293 cells expressing hSERT; 20 nM [3H] serotonin, 40 min, 37° C.; mean ± s.e.m.
T1 construct: host or cells: HEK-293
T1 sequence (P31645 whole entry): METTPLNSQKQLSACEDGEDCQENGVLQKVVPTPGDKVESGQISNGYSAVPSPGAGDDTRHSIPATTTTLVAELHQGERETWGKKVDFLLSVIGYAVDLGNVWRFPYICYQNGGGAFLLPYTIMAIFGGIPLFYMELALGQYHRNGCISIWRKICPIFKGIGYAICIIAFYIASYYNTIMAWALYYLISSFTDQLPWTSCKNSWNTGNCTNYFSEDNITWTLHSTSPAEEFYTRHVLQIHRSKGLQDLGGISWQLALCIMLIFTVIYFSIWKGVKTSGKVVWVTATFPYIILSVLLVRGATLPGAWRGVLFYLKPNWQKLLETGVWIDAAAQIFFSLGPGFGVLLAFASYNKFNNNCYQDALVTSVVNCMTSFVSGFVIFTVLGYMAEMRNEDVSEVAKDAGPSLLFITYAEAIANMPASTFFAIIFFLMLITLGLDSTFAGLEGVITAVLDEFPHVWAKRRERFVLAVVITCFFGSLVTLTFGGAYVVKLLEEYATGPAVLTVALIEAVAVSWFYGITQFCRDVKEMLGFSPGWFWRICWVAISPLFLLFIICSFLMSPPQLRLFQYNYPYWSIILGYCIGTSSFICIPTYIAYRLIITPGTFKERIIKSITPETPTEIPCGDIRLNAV
Description: HEK-293 cells stably expressing the human serotonin re-uptake transporter (hSERT) were obtained from R. Blakely, Vanderbilt University, USA. The cells were routinely grown in Dulbecco's Modified Eagle's Medium (Bioconcept) containing 10% fetal calf serum, penicillin, streptomycin, L-glutamine and the antibiotic G418 and passaged by trypsinisation. On the day of assay, cells from 80% confluent flasks were harvested by gentle washing with warm phosphate buffered saline (PBS). […] Serotonin uptake into the cells was determined by addition of radio-labelled [^3H] serotonin (GE Healthcare) at a concentration of 20 nM, and incubation for 40 minutes at 37° C. with gentle shaking. At the end of this time unincorporated label was removed by filtration though Unifilter 96 GF/B plates (Perkin Elmer) using a Tomtec Mach III M cell harvester. The incorporated serotonin retained on the plates was quantified by liquid scintillation counting using Microscint-40/Topcount (Perkin Elmer).

[2] = target: T2, Monoamine oxidase A (MAO-A) (Homo sapiens, UniProt P21397); experiment: Monoamine oxidase A inhibition (p-tyramine substrate, H2O2/vanillic acid/HRP readout); type: biochemical; conditions: p-tyramine 0.5 mM; mean ± s.e.m.; read-out: IC50 [μM] for Inhibition of MAO-A
T2 sequence (P21397 1-527): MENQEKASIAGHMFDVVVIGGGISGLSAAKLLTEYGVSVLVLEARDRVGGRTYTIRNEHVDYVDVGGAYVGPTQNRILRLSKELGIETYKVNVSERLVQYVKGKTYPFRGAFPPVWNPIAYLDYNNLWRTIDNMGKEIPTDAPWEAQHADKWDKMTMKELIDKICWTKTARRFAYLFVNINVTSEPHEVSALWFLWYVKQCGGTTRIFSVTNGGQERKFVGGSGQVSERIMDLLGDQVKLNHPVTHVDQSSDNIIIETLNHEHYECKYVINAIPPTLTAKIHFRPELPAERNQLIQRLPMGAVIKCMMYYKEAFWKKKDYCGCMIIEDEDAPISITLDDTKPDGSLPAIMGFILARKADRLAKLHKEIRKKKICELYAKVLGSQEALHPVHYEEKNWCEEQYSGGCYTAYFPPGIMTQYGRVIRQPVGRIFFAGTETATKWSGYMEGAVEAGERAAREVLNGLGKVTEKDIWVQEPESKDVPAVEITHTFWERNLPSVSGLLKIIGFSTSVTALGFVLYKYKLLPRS
Procedure: (§1) The organic amines p-tyramine or benzylamine were used as substrates for the Monoamine oxidase A (MAO-A) and B (MAO-B) enzymes respectively. The H2O2 produced by this reaction was quantified by reaction with vanillic acid, catalysed by horse radish peroxidase (HRP).
(§2) The reactions were carried out in polystyrene microtitre plates. The MAO enzymes (final concentration 2 U/ml) were mixed with either p-tyramine (Sigma, final concentration 0.5 mM) or benzylamine (Sigma, final concentration 0.5 mM) as appropriate and the chromogenic solution (containing vanillic acid (Fluka), 4-aminoantipyrine (Fluka) and horse radish peroxidase (Sigma), final concentrations 0.25 mM, 0.125 mM and 1 U/ml respectively) in 0.2 M potassium phosphate buffer, pH 7.6. The reactions were followed in a microtitre plate absorbance reader e.g. Spectramax M5 (Molecular Devices Corporation). Absorbance readings at 495 nm were taken every 15 seconds for 40 minutes and the initial reaction velocities calculated by linear regression using SOFTmaxPro (Molecular Devices Corporation).
(§3) The effect of tricyclic diterpenes and their derivatives according to formula I on the monoamine oxidase enzymes was determined by their inclusion in the assay at a range of concentrations between 0.03 and 100 μM for 10 minutes prior to and during the incubation with substrate. To determine the effect of the compounds on the HRP catalyzed portion of the reaction, the MAO enzyme was replaced by H2O2 (Molecular Probes, final concentration 0.2 mM). The reactions containing MAO-A and MAO-B were both inhibited by tricyclic diterpenes and their derivatives according to formula I in a dose-dependent manner, whilst the control reaction, was unaffected. The measured IC50 values for inhibition of monoamine oxidase activity by carnosic acid, carnosic acid-12-methyl ether and 20-deoxo-carnosol are shown in Table 3.

[3] = target: T3, Monoamine oxidase B (MAO-B) (Homo sapiens, UniProt P27338); experiment: Monoamine oxidase B inhibition (benzylamine substrate, H2O2/vanillic acid/HRP readout); type: biochemical; conditions: benzylamine 0.5 mM; mean ± s.e.m.; read-out: IC50 [μM] for Inhibition of MAO-B
T3 sequence (P27338 1-520): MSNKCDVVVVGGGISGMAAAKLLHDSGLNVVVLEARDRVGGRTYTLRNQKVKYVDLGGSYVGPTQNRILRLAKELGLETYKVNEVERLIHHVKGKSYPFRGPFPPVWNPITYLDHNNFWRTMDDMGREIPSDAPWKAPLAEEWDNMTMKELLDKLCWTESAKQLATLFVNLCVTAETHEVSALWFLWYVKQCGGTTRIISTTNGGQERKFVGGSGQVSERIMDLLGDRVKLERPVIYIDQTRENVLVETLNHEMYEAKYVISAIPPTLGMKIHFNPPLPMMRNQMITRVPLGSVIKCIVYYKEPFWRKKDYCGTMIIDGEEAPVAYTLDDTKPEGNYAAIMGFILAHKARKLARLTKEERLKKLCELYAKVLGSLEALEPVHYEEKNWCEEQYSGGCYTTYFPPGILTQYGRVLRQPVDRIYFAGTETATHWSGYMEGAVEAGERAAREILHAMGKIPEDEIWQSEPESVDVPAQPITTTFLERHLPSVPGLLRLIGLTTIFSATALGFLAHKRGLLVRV
Procedure: as §1, §2, §3

[4] = system: mouse; experiment: Marble burying test; type: in vivo; conditions: for NUMBER OF MARBLES COVERED BY SAWDUST % change from control / NUMBER OF MARBLES COVERED BY SAWDUST mean ± s.e.m.: mouse
Procedure: The method applied here follows that described by Broekkamp et al., supra. Mice (n=15 per treatment group) were individually placed in transparent plastic cages (33×21×18 cm) with 5 cm of sawdust on the floor and 25 marbles (diameter 1 cm) grouped in the centre of the cage. A second, up-turned, cage served as a lid. The number of marbles covered by sawdust (by at least two-thirds) was counted at the end of the 30-minute test period. Tests were performed by investigators blind to the drug treatment protocol.
Prior to testing, all test cages and marbles were “impregnated” by leaving 10 naive mice in each cage for 15 minutes. […]
Data were analysed by comparing treated groups with vehicle control using unpaired Student's t-tests.

[5] = system: mouse; experiment: Light dark box test; type: in vivo; conditions: mouse, 32 mg/kg p.o. −1 h
Description: The method, which detects anxiolytic activity, follows that described by Crawley, 1981 Pharmacol. Biochem. Behav., 15:695-699. Anxiolytics increase the time spent in the light compartment.
Animals were placed into the light compartment of a 2-compartment box with one half light and open (25×27×27 cm) and the other half dark and closed (20×27×27 cm). The time spent in each compartment as well as the number of times the animal crosses from one side to the other is scored during a 3-minute test. 15 mice were studied per group. The test was performed blind.
Carnosic acid was evaluated at 3 doses (100, 200, 400 mg/kg BW), administered by oral gavage (p.o.) 24, 5 and 1 hour before the test, and compared with a vehicle control group (corn oil). Carnosic acid was dissolved in corn oil (“vehicle”). Clobazam (32 mg/kg p.o.), administered 1 hour before the test, was used as reference substance. Mice in this group received additional administrations of vehicle at 24 and 5 hours before the test in order to maintain experimental blinding.

[6] = system: mouse; experiment: Porsolt's forced swim test (FST); type: in vivo
Procedure: Mice were individually placed in cylinders (24.5 cm height, 19.5 cm internal diameter) containing 13.5 cm depth of water (22±0.5° C.) for a period of 6 minutes, behavioural parameters of interest being analysed during the final 4 minutes of the test, since the first 2 minutes include vigorous activity. Six cylinders were placed in a Perspex box, thus enabling six mice to be tested simultaneously.
Automatic monitoring of swim tests was enabled through the use of VideoMot2 software (TSE Technical and Scientific Equipment GmbH, Bad Homburg, Germany). All to experiments were observed via a black and white CCD camera. The rest:locomotion and stop:start thresholds, as determined by setting parameters in the software programme, determine the number of pixels which must change for a movement to be registered, enabling the software to determine whether a mouse is swimming or resting. The parameters which are automatically recorded include: rest time and locomotion time (ms), % rest and % locomotion, distance travelled (cm), speed of travel (cm/s) and number of stops.
Data were analysed by comparing treated groups with the untreated control group using Fisher's PLSD (StatView, SAS Institute Inc., Cary, N.C., USA)

[7] = Table 6, 100 mg/kg i.p. −30 min
[8] = Table 6, 200 mg/kg i.p. −30 min

**Q.** For 16-hydroxytotarol, which IC50 [1] is on record?
**A.** 7.4 µM

**Q.** Which IC50 [1] does the source give for `CC(C)c1ccc2c(c1)C(=O)C[C@H]1[C@](C)(C(=O)O)CCC[C@]21C` [7-Oxocallitrisic Acid, 7-oxocallitrisic acid] here?
**A.** 32.9 ± 8.6 µM

**Q.** How did the IC50 [1] turn out when `CC(C)c1cc2c(c(O)c1O)[C@@]13CCCC(C)(C)[C@@H]1C[C@@H]2OC3` [20-Deoxo-carnosol, 20-deoxo-carnosol] was run?
**A.** 4.2 ± 0.2 µM

**Q.** And the IC50 [2]?
**A.** 4.3 ± 1.1 µM

**Q.** And the IC50 [3]?
**A.** 27 ± 7.3 µM

**Q.** And the “NUMBER OF MARBLES COVERED BY SAWDUST % change from control” value ([4]; Table 6, 30 mg/kg i.p. −30 min)?
**A.** −24%

**Q.** And the “NUMBER OF MARBLES COVERED BY SAWDUST mean ± s.e.m.” value ([4]; Table 6, 30 mg/kg i.p. −30 min)?
**A.** 16.7 ± 2.2

**Q.** What about the “NUMBER OF MARBLES COVERED BY SAWDUST % change from control” value [4, 7] of the same compound?
**A.** −56%

**Q.** What about the “NUMBER OF MARBLES COVERED BY SAWDUST mean ± s.e.m.” value [4, 7] of the same compound?
**A.** 9.7 ± 2.3

**Q.** And the “NUMBER OF MARBLES COVERED BY SAWDUST % change from control” value [4, 8]?
**A.** −60%

**Q.** What about the “NUMBER OF MARBLES COVERED BY SAWDUST mean ± s.e.m.” value [4, 8] of the same compound?
**A.** 8.8 ± 2.4

**Q.** What about the “marble burying behaviour (in words)” value ([4]; mouse, 30, 100 and 200 mg/kg i.p.) of the same compound?
**A.** dose-dependently and significantly reduced marble burying behaviour

**Q.** What does the source list for `COc1c(C(C)C)cc2c(c1O)C1(C(=O)O)CCCC(C)(C)C1CC2` (stereo not drawn) [Carnosic acid-12-methylether, carnosic acid 12-methyl ether]?
**A.** IC50 [1]: 22 ± 4.9 µM; IC50 [2]: 40.6 ± 0.25 µM; IC50 [3]: 83.1 ± 6.8 µM

**Q.** Which results are given for `CN1C(=O)CC(=O)N(c2ccccc2)c2cc(Cl)ccc21` [Clobazam, clobazam, reference compound]?
**A.** NUMBER OF CROSSINGS % change from control [5]: +56%; TIME SPENT IN THE LIGHT COMPARTMENT % change from control [5]: +43%

**Q.** For `CNCCC(Oc1ccc(C(F)(F)F)cc1)c1ccccc1` (stereo not drawn) [Fluoxetine, fluoxetine, reference compound], which “NUMBER OF MARBLES COVERED BY SAWDUST % change from control” value ([4]; Table 5, 32 mg/kg i.p. −30 min) is on record?
**A.** −100%

**Q.** What about the “NUMBER OF MARBLES COVERED BY SAWDUST mean ± s.e.m.” value ([4]; Table 5, 32 mg/kg i.p. −30 min) of the same compound?
**A.** 0.0 ± 0.0

**Q.** And the “NUMBER OF MARBLES COVERED BY SAWDUST % change from control” value ([4]; Table 6, 32 mg/kg i.p. −30 min)?
**A.** −100%

**Q.** What about the “NUMBER OF MARBLES COVERED BY SAWDUST mean ± s.e.m.” value ([4]; Table 6, 32 mg/kg i.p. −30 min) of the same compound?
**A.** 0.0***

**Q.** How did the IC50 [1] turn out when `CC(C)c1c(O)ccc2c1CC[C@H]1C(C)(C)CCC[C@]21C` [Totarol, totarol] was run?
**A.** 7.5 ± 2.6 µM

**Q.** With `COC(=O)C1(C)CCCC2(C)c3ccc(O)c(C(C)C)c3CCC12` (stereo not drawn) [Totarol-19-carboxylic acid methyl ester, totarol-19-carboxylic acid methyl ester] as the compound, how does the IC50 [1] read?
**A.** 7.2 µM

**Q.** What does the source list for `COc1ccc(C(CN(C)C)C2(O)CCCCC2)cc1` (stereo not drawn) [VENLAFAXINE, venlafaxine, reference compound]?
**A.** NUMBER OF MARBLES COVERED BY SAWDUST % change from control ([4]; Table 6, 16 mg/kg i.p. −30 min): −60%; NUMBER OF MARBLES COVERED BY SAWDUST mean ± s.e.m. ([4]; Table 6, 16 mg/kg i.p. −30 min): 8.7 ± 2.2

**Q.** Which results are given for `CN(C)CCCN1c2ccccc2CCc2ccccc21` [imipramine, reference compound]?
**A.** Duration of immobility (% change from control) ([6]; 32 mg/kg i.p., −30 min): −61%; Duration of immobility (% change from control) ([6]; 32 mg/kg p.o., −24, −5, −1 h): −56%
